# Assay results taken from patent publication US12441767B2 (priority 2020, dated 2025).
# Entries after “also recorded” stand apart in the source; their conditions may differ. Like-named read-outs stand apart in the source and are kept apart here. Ends that are not written are not given here.
# Experiments:
# p-Erk1/2 = assay type: cell-based, human
# p-Smad2 = assay type: cell-based, human
# [1] = as reported in the literature; cited from earlier work
# OCT4, SOX2 and NANOG = assay: qPCR of self-renewal markers in human ES cells after five passages; assay type: cell-based; details: for expression levels of SOX2 and NANOG: one-way ANOVA ***p<0.001
# From the text: The self-renewal markers of the human ES cells were detected by using a quantitative polymerase chain reaction (qPCR) method.
# The differential expressions of mRNAs of OCT4, SOX2 and NANOG were detected under the culture conditions of the above eight different culture media. Please refer to FIG. 2b for the detection results.
# The self-renewal markers of the human ES cells were detected by using qPCR assay.
# The differential expressions of mRNAs of OCT4, SOX2 and NANOG were detected under 12 different conditions. Please refer to FIG. 3b for the detection results (in the figure, the samples from left to right were E6, E6+P13, E6+M6, E6+TGFβ1, E6+TGFβ1+P13, E6+TGFβ1+M6, E6+FGF2, E6+FGF2+P13, E6+FGF2+M6, E8, E8+P13 and E8+M6).
# human ES cells [2] = assay: Survival / proliferation of human ES cells (cell number by flow cytometry); assay type: cell-based; details: E8 culture medium + peptide vs E8 culture medium; 24 h; P13 final concentration 200 μM; one-way ANOVA
# human ES cells [3] = assay: Morphology (colony formation) of human ES cells after five serial passages; assay type: cell-based
# Description: Two groups were prepared, with four different culture media (E6, E6+TGFβ1, E6+FGF2 and E8) in each group, and the peptide P13 was added to the 4 culture media in group 1. A total of eight different culture media were prepared.
# The human ES cells were serially passaged five times under eight different conditions to detect the differences of morphologies and pluripotency markers. Please refer to FIG. 2a for the morphological difference results observed after five passages.
# On the basis of the preliminary results, three groups were prepared, with four different culture media (E6, E6+TGFβ1, E6+FGF2 and E8) in each group, the peptide M6 was added to the four culture media in group 1, respectively, and the P13 was added in another group as the control. In this way, a total of twelve different culture media were prepared.
# The human ES cells were serially passaged five times under 12 different conditions to detect the differences of morphologies and pluripotency markers. Please refer to FIG. 3a for the morphological difference results obtained after five passages (in the figure, the samples from left to right were E6, E6+P13, E6+TGFβ1, E6+TGFβ1+P13, E6+FGF2, E6+FGF2+P13, E8 and E8+P13).
# human ES cells [4] = assay: Cell-penetrating ability of FITC-labeled peptides, confocal microscopy; assay type: cell-based; details: 24 h
# Description: The human ES cells were treated with FITC-labeled P13 and M6 for 24 h, respectively, and the positions of the peptides were confirmed under a confocal microscope by immunostaining with nuclear dye combined with cytoplasmic membrane dye.
# Immunostaining of human ES cells treated with the fluorescently labeled P13/M6: Human ES cells were cultured on a sterile cover slide, and a 12-well plate was coated with matrix gel at a concentration of 1 mg/ml for 1-2 h. After 24 h, the cells were washed with a DMEM-F12 culture medium, the E8 culture medium was used for replacement, and the cells were treated with the fluorescently labeled peptide for 24 h. Then, the cell membranes were stained by using the CellMask™ crimson plasma membrane (Thermo Fisher), and incubation was performed at 37° C. for 10 min. The staining solution was removed, 200 μL of 4.0% formaldehyde was added to the culture medium, and incubation was performed at 37° C. for 10 min. The culture medium was then removed. The cells were washed with 1×PBS three times and incubated with 10 μl of DAPI (a DNA staining agent) and a mounting medium for one minute, and the cover slide was mounted and sealed with nail polish to prevent drying. The samples were imaged with a Carl Zeiss confocal LSM710 microscope.
# [5] = E6 culture medium + peptide vs E6 control culture medium
molecule,measurement,setting,value
"FGF2: growth factor component of the E8 culture medium, 16.4 kDa",p-Erk1/2 expression,p-Erk1/2; growth factor in E6 culture medium (FIG. 5d lanes 1-2),up-regulated
"TGFβ1: growth factor component of the E8 culture medium, 25.6 kDa homodimer linked by a disulfide bond",p-Smad2 expression,p-Smad2; E6 with 1.0 μmol LDN189193 treated with TGFβ or M6 vs E6 with 1.0 μmol LDN189193,up-regulated
same,p-Smad2 expression,p-Smad2; growth factor in E6 culture medium (FIG. 5d lanes 3-4),up-regulated
same,p-Erk1/2 expression,p-Erk1/2; E6 with M6 or TGFβ in presence of SB431542 (10 μmol) / A8301 (1.0 μmol),not observed
N=C(N)NCCC[C@H](N)C(=O)O [arginine],heparin-binding affinity relative to lysine,[1],2.5 times
Gonearrestide (WCYKLPDRVSIKEKGRCN-NH2; cysteine pairing not given here) [P13],"mRNA expression levels of OCT4, SOX2 and NANOG","OCT4, SOX2 and NANOG; E6 + peptide in comparison with other conditions, five passages",low mRNA expression levels
same,expression levels of SOX2 and NANOG,"OCT4, SOX2 and NANOG; E6+FGF2 + peptide vs E6",significantly up-regulated
same,"mRNA expression of OCT4, SOX2 and NANOG","OCT4, SOX2 and NANOG; E6+TGFβ1 + peptide vs E6+TGFβ1",up-regulated
same,expression levels of SOX2 and NANOG,"OCT4, SOX2 and NANOG; E8 + peptide vs E6",significantly up-regulated
same,number of human ES cells that survived,human ES cells [2],significantly higher
same,colony-forming morphology of human ES cells,"human ES cells [3]; E6+TGFβ + peptide, after five passages, vs E6+TGFβ",still maintained their colony morphologies; also recorded: maintained their colony-forming morphologies; also recorded: mixed state of colonies and dispersed cells
same,morphology of human ES cells,"human ES cells [3]; peptide added to E6+FGF2, five generations",no significant morphological differences; also recorded: no significant difference in their morphologies
same,morphology of human ES cells,"human ES cells [3]; peptide added to E8, five generations",no significant morphological differences; also recorded: no significant difference in their morphologies
same,expression level of p-Smad2,p-Smad2; [5],significantly up-regulated
same,expression level of p-Smad2,p-Smad2; E6 with P13 and/or TGFβ1 vs E6+FGF2,up-regulated
same,expression level of p-Smad2,p-Smad2; E8 with P13 vs E8,up-regulated
same,position of FITC-labeled peptide in human ES cells,"human ES cells [4]; E8, confocal microscope",bound to the plasma membranes
same,cell-penetrating peptide (CPP) property,human ES cells [4]; none found in cytoplasm,did not belong to the CPP family
same,expression level of p-Erk1/2,p-Erk1/2; [5],significantly up-regulated
same,expression level of p-Erk1/2,p-Erk1/2; E6 with P13 and/or FGF2 vs E6+TGFβ1,up-regulated
same,expression level of p-Erk1/2,p-Erk1/2; E8 with P13 vs E8,not significantly up-regulated
